Data reported in US20260130395A1, “Water Dispersible Botanical Compositions” (Aquila Black Limited, priority 2021, published 2026).

Legend:
[1] = Stability of cannabinoid entourage and Vitamin E components of the powder concentrate by LCMSMS; assay type: physicochemical; settings: for Stability of Plant-Derived Cannabinoid Compounds in Powder Concentrate: powder stored at 21-25° C.
Description: At each time period, 0.05 g of powder was dissolved in 10 ml-15 of ethanol, diluted to fall within the analytical range, and injected into the LCMSMS for analysis.

[2] = Stability of cannabinoid compounds and Vitamin E components in Beverage 2 (AB Red) by LCMSMS; assay type: physicochemical; settings: for stability over the entire period (in words): 570 days; for Stability of Plant-Derived Cannabinoid Compounds in AB Red: stored at 8° C.

Structure (SMILES): CCCCCc1cc(O)c2c(c1)OC(C)(C)[C@@H]1CCC(C)=C[C@@H]21 [D9 THC, delta-9-tetrahydrocannabinol, reference compound]
- degradation over the entire period (in words) ([1]; powder concentrate stored at 21-25° C., 570 days): no significant degradation
- Stability of Plant-Derived Cannabinoid Compounds in Powder Concentrate ([1]; 0 days): 2.55 mg/g powder
- Stability of Plant-Derived Cannabinoid Compounds in Powder Concentrate ([1]; 1 days): 2.55 mg/g powder
- Stability of Plant-Derived Cannabinoid Compounds in Powder Concentrate ([1]; 2 days): 2.46 mg/g powder
- Stability of Plant-Derived Cannabinoid Compounds in Powder Concentrate ([1]; 3 days): 2.63 mg/g powder
- Stability of Plant-Derived Cannabinoid Compounds in Powder Concentrate ([1]; 5 days): 2.66 mg/g powder
- Stability of Plant-Derived Cannabinoid Compounds in Powder Concentrate ([1]; 8 days): 2.49 mg/g powder
- Stability of Plant-Derived Cannabinoid Compounds in Powder Concentrate ([1]; 9 days): 2.49 mg/g powder
- Stability of Plant-Derived Cannabinoid Compounds in Powder Concentrate ([1]; 10 days): 2.60 mg/g powder
- Stability of Plant-Derived Cannabinoid Compounds in Powder Concentrate ([1]; 11 days): 2.58 mg/g powder
- Stability of Plant-Derived Cannabinoid Compounds in Powder Concentrate ([1]; 12 days): 2.65 mg/g powder
- Stability of Plant-Derived Cannabinoid Compounds in Powder Concentrate ([1]; 15 days): 2.49 mg/g powder
- Stability of Plant-Derived Cannabinoid Compounds in Powder Concentrate ([1]; 16 days): 2.54 mg/g powder
- Stability of Plant-Derived Cannabinoid Compounds in Powder Concentrate ([1]; 17 days): 2.54 mg/g powder
- Stability of Plant-Derived Cannabinoid Compounds in Powder Concentrate ([1]; 18 days): 2.55 mg/g powder
- Stability of Plant-Derived Cannabinoid Compounds in Powder Concentrate ([1]; 19 days): 2.51 mg/g powder
- Stability of Plant-Derived Cannabinoid Compounds in Powder Concentrate ([1]; 22 days): 2.46 mg/g powder
- Stability of Plant-Derived Cannabinoid Compounds in Powder Concentrate ([1]; 23 days): 2.65 mg/g powder
- Stability of Plant-Derived Cannabinoid Compounds in Powder Concentrate ([1]; 24 days): 2.60 mg/g powder
- Stability of Plant-Derived Cannabinoid Compounds in Powder Concentrate ([1]; 25 days): 2.55 mg/g powder
- Stability of Plant-Derived Cannabinoid Compounds in Powder Concentrate ([1]; 26 days): 2.52 mg/g powder
- Stability of Plant-Derived Cannabinoid Compounds in Powder Concentrate ([1]; 29 days): 2.47 mg/g powder
- Stability of Plant-Derived Cannabinoid Compounds in Powder Concentrate ([1]; 30 days): 2.66 mg/g powder
- Stability of Plant-Derived Cannabinoid Compounds in Powder Concentrate ([1]; 60 days): 2.66 mg/g powder
- Stability of Plant-Derived Cannabinoid Compounds in Powder Concentrate ([1]; 90 days): 2.49 mg/g powder
- Stability of Plant-Derived Cannabinoid Compounds in Powder Concentrate ([1]; 120 days): 2.66 mg/g powder
- Stability of Plant-Derived Cannabinoid Compounds in Powder Concentrate ([1]; 150 days): 2.61 mg/g powder
- Stability of Plant-Derived Cannabinoid Compounds in Powder Concentrate ([1]; 180 days): 2.59 mg/g powder
- Stability of Plant-Derived Cannabinoid Compounds in Powder Concentrate ([1]; 210 days): 2.54 mg/g powder
- Stability of Plant-Derived Cannabinoid Compounds in Powder Concentrate ([1]; 240 days): 2.53 mg/g powder
- Stability of Plant-Derived Cannabinoid Compounds in Powder Concentrate ([1]; 270 days): 2.47 mg/g powder
- Stability of Plant-Derived Cannabinoid Compounds in Powder Concentrate ([1]; 300 days): 2.57 mg/g powder
- Stability of Plant-Derived Cannabinoid Compounds in Powder Concentrate ([1]; 330 days): 2.49 mg/g powder
- Stability of Plant-Derived Cannabinoid Compounds in Powder Concentrate ([1]; 360 days): 2.58 mg/g powder
- Stability of Plant-Derived Cannabinoid Compounds in Powder Concentrate ([1]; 390 days): 2.48 mg/g powder
- Stability of Plant-Derived Cannabinoid Compounds in Powder Concentrate ([1]; 420 days): 2.53 mg/g powder
- Stability of Plant-Derived Cannabinoid Compounds in Powder Concentrate ([1]; 450 days): 2.61 mg/g powder
- Stability of Plant-Derived Cannabinoid Compounds in Powder Concentrate ([1]; 480 days): 2.65 mg/g powder
- Stability of Plant-Derived Cannabinoid Compounds in Powder Concentrate ([1]; 510 days): 2.64 mg/g powder
- Stability of Plant-Derived Cannabinoid Compounds in Powder Concentrate ([1]; 540 days): 2.47 mg/g powder
- Stability of Plant-Derived Cannabinoid Compounds in Powder Concentrate ([1]; 570 days): 2.64 mg/g powder
- stability over the entire period (in words) ([2]; AB Red stored at 8° C.): high degree of stability
- stability over the entire period (in words) ([2]; AB Red stored at 21-25° C.): high degree of stability
- Stability of Plant-Derived Cannabinoid Compounds in AB Red ([2]; 0 days): 12.9 µg/mL
- Stability of Plant-Derived Cannabinoid Compounds in AB Red ([2]; 1 days): 13.0 µg/mL
- Stability of Plant-Derived Cannabinoid Compounds in AB Red ([2]; 2 days): 13.0 µg/mL
- Stability of Plant-Derived Cannabinoid Compounds in AB Red ([2]; 3 days): 12.7 µg/mL
- Stability of Plant-Derived Cannabinoid Compounds in AB Red ([2]; 5 days): 13.0 µg/mL
- Stability of Plant-Derived Cannabinoid Compounds in AB Red ([2]; 8 days): 12.6 µg/mL
- Stability of Plant-Derived Cannabinoid Compounds in AB Red ([2]; 9 days): 12.7 µg/mL
- Stability of Plant-Derived Cannabinoid Compounds in AB Red ([2]; 10 days): 12.8 µg/mL
- Stability of Plant-Derived Cannabinoid Compounds in AB Red ([2]; 11 days): 12.8 µg/mL
- Stability of Plant-Derived Cannabinoid Compounds in AB Red ([2]; 12 days): 12.9 µg/mL
- Stability of Plant-Derived Cannabinoid Compounds in AB Red ([2]; 15 days): 12.9 µg/mL
- Stability of Plant-Derived Cannabinoid Compounds in AB Red ([2]; 16 days): 12.7 µg/mL
- Stability of Plant-Derived Cannabinoid Compounds in AB Red ([2]; 17 days): 12.6 µg/mL
- Stability of Plant-Derived Cannabinoid Compounds in AB Red ([2]; 18 days): 12.8 µg/mL
- Stability of Plant-Derived Cannabinoid Compounds in AB Red ([2]; 19 days): 12.7 µg/mL
- Stability of Plant-Derived Cannabinoid Compounds in AB Red ([2]; 22 days): 12.7 µg/mL
- Stability of Plant-Derived Cannabinoid Compounds in AB Red ([2]; 23 days): 12.9 µg/mL
- Stability of Plant-Derived Cannabinoid Compounds in AB Red ([2]; 24 days): 12.9 µg/mL
